{"source": "patent US9237749B2", "about": "“Antimicrobial combinations of pyrion compounds with polyethyleneimines” (Janssen Pharmaceutica N.V., priority 2010, dated 2016)", "assay_in_all_cases": "Poison Plate Assay", "assay_type_in_all_cases": "cell-based", "key": {"[1]": {"tested_on": "Humicola grisea MG28", "conditions": "Mycothermus thermophilus, MG28, 336 h, read-out: MIC-values in ppm", "experimental": "(§1) • Name of component: sodium pyrithione (I-a) • PEI 1300 (II-a) having an average molecular weight of approximately 1300 • PEI 70000 (II-b) having an average molecular weight of approximately 70000 • PEI 750000 (II-c) having an average molecular weight of approximately 750000 • Test models: Fungi: to each well of a 24-well microtiter plate, 1000 μl of a rich (Potato Dextrose Agar, PDA: 4 g potato infusion, 20 g bacto dextrose and 15 g bacto agar in 1 liter deionised water) containing the appropriate combination of the test compounds in one of the concentrations of a dose series is added. The nutrient medium is inoculated with the test fungi by adding a spore/mycelium suspension (10 μl) or a small piece of agar from the margin of an actively growing colony and incubated under dark at 27° C. with 70% relative humidity. The growth of the fungi is evaluated after two weeks. • Concentrations: a 24-step doses series is applied, each step being 0.75 times the previous step, as follows: 25.00−18.75 . . . 0.04−0.03 ppm • Test combinations:\n(§2) A. G. Nass (1957) “Some aspects of the notions additivity, synergism and antagonism in the simultaneous activity of two antibacterial agents in vitro” Arch. intern. Pharmacodynamie 109: 211-228; Steinberg, D. C. (2000) “Measuring synergy” cosmetics & Toiletries 115(11): 59-62; which is calculated as follows for two compounds A and B: […]\n(§3) When the SI is equal to 1.0, additivity is indicated. […]."}, "[2]": {"tested_on": "Trichoderma viride CBS189.79", "conditions": "CBS189, 336 h", "experimental": "as §1, §2, §3"}, "[3]": {"tested_on": "Aspergillus niger CBS554.65", "conditions": "CBS554, 336 h, read-out: MIC-values in ppm", "experimental": "as §1, §2, §3"}, "[4]": {"tested_on": "Colletotrichum musae MUCL nr2", "conditions": "MUCLNR2, 336 h", "experimental": "as §1, §2, §3"}, "[5]": {"conditions": "read-out: MIC-values in ppm, Table 1, (I-a) with PEI 1300 (II-a), PDA, 27° C., growth evaluated after two weeks"}, "[6]": {"conditions": "read-out: MIC-values in ppm, Table 2, (I-a) with PEI 70000 (II-b), PDA, 27° C., growth evaluated after two weeks"}}, "note": "Read-outs that look alike come from different tables or passages of the source."}
{"molecule": "[O-][n+]1ccccc1S", "note": "[I-a, sodium pyrithione]", "values": [{"measurement": "MIC", "setting": "[1]", "value": 0.45, "unit": "µg/mL"}, {"measurement": "MIC", "setting": "[2]; [5]", "value": 1.06, "unit": "µg/mL"}, {"measurement": "MIC", "setting": "[2]; [6]", "value": 1.06, "unit": "µg/mL"}, {"measurement": "MIC", "setting": "[2]; read-out: MIC-values in ppm, Table 3, (I-a) with PEI 750000 (II-c), PDA, 27° C., growth evaluated after two weeks", "value": 0.59, "unit": "µg/mL"}, {"measurement": "MIC", "setting": "[3]", "value": 0.25, "unit": "µg/mL"}, {"measurement": "MIC", "setting": "[4]; [5]", "value": 0.06, "unit": "µg/mL"}, {"measurement": "MIC", "setting": "[4]; [6]", "value": 0.08, "unit": "µg/mL"}]}
